From patent US4742047A, “Semi-synthetic peptide antibiotics” (Bristol-Myers Company, priority 1986, dated 1988)

Assays:
P388 leukemia = assay: Antitumor effect against in vivo murine transplantable P388 leukemia; set-up: species or system mice
Description: (§1) Antitumor activity of representative compounds of the present invention was determined using in vivo murine transplantable P388 leukemia and B16 melanoma models.
P388 leukemia: female CDF1 and male BDF1 mice were inoculated by intraperitoneal injection of 0.8 ml diluted ascitic fluid containing 10^6 cells.
(§2) Test materials were dissolved in 0.9% saline containing 10% dimethyl sulfoxide and graded doses of them were administered to mice intraperitoneally 24 hrs after tumor implantation. Two dosing schedules were used for the p388 leukemia experiment: once daily on day 1 through day 3 (QD 1→3); and once daily on day 1 through day 9 (QD 1→9). The QD 1→9 schedule was used for the B16 melanoma experiment.
(§3) Antitumor activity is evaluated as the increase in mediam survival time (MST) of treated (T) and control (C) animals for various dosage regimens expressed as a percentage ratio (T/C %=MST of treated.div.MST of control×100). For both in vivo P388 leukemia and in vivo B16 melanoma models, values for percentage ratios of 125 and above indicate significant antitumor effect.

B16 melanoma = assay: Antitumor effect against in vivo murine B16 melanoma; set-up: species or system mice; conditions: QD 1→9 ip
Description: as §1
B16 melanoma; male BDF1 mice were implanted with 0.5 ml of a 10% tumor brei intraperitoneally.
as §2, §3

ddy mice = conditions: single intraperitoneal administration
Description: The acute toxicity for compounds of Examples 1, 2, and 3 was determined in ddy mice by single intraperitoneal administration.

Row | SMILES | MST (% T/C) (P388 leukemia; 1 mg/kg/day, QD 1→3 ip) | MST (% T/C) (P388 leukemia; 3 mg/kg/day, QD 1→3 ip) | MST (% T/C) (P388 leukemia; .3 mg/kg/day, QD 1→3 ip) | MST (% T/C) (B16 melanoma; 1 mg/kg/day) | MST (% T/C) (B16 melanoma; 2 mg/kg/day) | MST (% T/C) (B16 melanoma; .13 mg/kg/day) | MST (% T/C) (B16 melanoma; .25 mg/kg/day) | MST (% T/C) (B16 melanoma; .5 mg/kg/day) | MST (% T/C) (P388 leukemia; 0.13 mg/kg/day, QD 1→9 ip) | MST (% T/C) (P388 leukemia; 0.25 mg/kg/day, QD 1→9 ip) | MST (% T/C) (P388 leukemia; 0.5 mg/kg/day, QD 1→9 ip) | MST (% T/C) (P388 leukemia; 0.63 mg/kg/day, QD 1→9 ip) | MST (% T/C) (P388 leukemia; 1 mg/kg/day, QD 1→9 ip) | MST (% T/C) (P388 leukemia; 2 mg/kg/day, QD 1→9 ip) | MST (% T/C) (P388 leukemia; 4 mg/kg/day, QD 1→9 ip) | MST (% T/C) (B16 melanoma; 4 mg/kg/day) | MST (% T/C) (P388 leukemia; 10 mg/kg/day, QD 1→3 ip) | LD50 (ddy mice) [mg/kg]
1 | CCCCCCCCC/C=C/C(=O)N[C@H](C(=O)NC1CC(O)CCNC(=O)/C=C/C(C)NC1=O)[C@@H](C)O (relative stereo) [Example 4, trans-2-Dodecenoyl-III] | 132 | 118 % T/C | 118 | – | – | – | – | – | – | – | – | – | – | – | – | – | – | –
2 | CCCCCCCC=CC=CC(=O)NC(C(=O)NC1CC(O)CCNC(=O)C=CC(C)NC1=O)C(C)O (stereo not drawn) [BU-2867T A, reference compound] | 145 | Tox | 130 | 116 | Tox | 97 | 100 | 113 | 130 | 150 | 155 | 110 | 190 % T/C | Tox | – | – | – | –
3 | CCCCCC=CCCC=CC=CC(=O)NC(C(=O)NC1CC(O)CCNC(=O)C=CC(C)NC1=O)C(C)O (stereo not drawn) [BU-2867T B, reference compound] | – | – | – | 126 | Tox | 108 | 111 | 118 | 125 | 130 | 145 | 130 | 170 % T/C | 180 % T/C | Tox | – | – | –
4 | CCCCCCCCCC=CC=CC(=O)NC(C(=O)NC1CC(O)CCNC(=O)C=CC(C)NC1=O)C(C)O (stereo not drawn) [BU-2867T C, reference compound] | 124 | 129 % T/C | – | 113 | 132 % T/C | 103 | 103 | 103 | 130 | 160 | 155 | 115 | 170 % T/C | 205 % T/C | 65 % T/C | Tox | 57 | –
5 | CCCCCCCCCCCC(=O)N[C@H](C(=O)NC1CC(O)CCNC(=O)/C=C/C(C)NC1=O)[C@@H](C)O (stereo partly drawn) [Example 1, n-Dodecanoyl-III] | 130 | 145 % T/C | – | 121 | 139 % T/C | – | 107 | 113 | 127 | 132 | 145 | – | 150 % T/C | 159 % T/C | 173 % T/C | 155 % T/C | 155 | 27
6 | CCCCCCCCCC(=O)N[C@H](C(=O)NC1CC(O)CCNC(=O)/C=C/C(C)NC1=O)[C@@H](C)O (stereo partly drawn) [Example 2, n-Decanoyl-III] | 123 | 127 % T/C | – | – | – | – | – | – | 109 | 123 | 123 | – | 127 % T/C | 145 % T/C | 155 % T/C | – | 64 | 50
7 | CCCCCCCCCCCCCC(=O)N[C@H](C(=O)NC1CC(O)CCNC(=O)/C=C/C(C)NC1=O)[C@@H](C)O (stereo partly drawn) [Example 3, n-Tetradecanoyl-III] | 127 | 132 % T/C | – | 116 | 124 % T/C | – | 113 | 113 | 118 | 132 | 132 | – | 150 % T/C | 150 % T/C | 159 % T/C | 145 % T/C | 55 | > 25
8 | CCCCCCCCCCCCCCC(O)C(=O)N[C@H](C(=O)NC1CC(O)CCNC(=O)/C=C/C(C)NC1=O)[C@@H](C)O (stereo partly drawn) [Example 5, 2-Hydroxy-hexadecanoyl-III] | 118 | 132 % T/C | – | – | – | – | – | – | – | – | – | – | – | – | – | – | 132 | –
9 | CCCCCCCCOc1ccc(C(=O)N[C@H](C(=O)NC2CC(O)CCNC(=O)/C=C/C(C)NC2=O)[C@@H](C)O)cc1 (stereo partly drawn) [Example 6, p-n-Octyloxybenzoyl-III] | 150 | Tox | 125 | – | – | – | – | – | 140 | 150 | 155 | 120 | Tox | – | – | – | – | –
10 | CCCCCCCCCCCCCCCC(=O)N[C@H](C(=O)NC1CC(O)CCNC(=O)/C=C/C(C)NC1=O)[C@@H](C)O (stereo partly drawn) [Example 10, Palmitoyl-L-Threonyl-II] | 114 | 119 % T/C | – | – | – | – | – | – | – | – | – | – | – | – | – | – | 138 | –
